The values that follow are results of earlier work, collected in US20080279914A1, “Transdermal composition comprising piroxicam-inorganic material complex and patch system comprising the same” (priority 2006, published 2008).

The conditions of this data set: orally administered.

Each structure is given as a SMILES string.

As for `CN1C(C(=O)Nc2ccccn2)=C(O)c2ccccc2S1(=O)=O` [piroxicam], the “drug discharged unchanged in the urine” value is “less than 5%”.
